What is called surface tension liquid-gas is the work needed to enlarge the surface of a liquid by unit area. One may read the refractive index as a measure of how strongly the sample bends light.

± gives the expanded uncertainty stated by the source.

We go through four compounds from the NIST ThermoML archive (doi:10.1021/je300382a).

The conditions of data set [1]: Ring tensiometer.
A short description of data set [2]: refractive index (Na D-line) (dimensionless). The note with it: 101.33 kPa, Liquid, Standard Abbe refractometry.
The nature of data set [3]: xn = mol fraction of the nth substance listed. The note with it: Ring tensiometer, x2 = 0.
A short description of data set [4]: refractive index (Na D-line) (dimensionless); xn = mol fraction of the nth substance listed. As to conditions: 101 kPa, Liquid, Standard Abbe refractometry, x2 = 0.

Turning to `CC(N)CN` (stereo not given) [1,2-propanediamine], the surface tension liquid-gas in data set [1] (283.15 K) is 35 ± 0.5 mN/m; in data set [1] (293.15 K) it was 33.8 ± 0.5 mN/m; in data set [1] (303.15 K), 32.7 ± 0.5 mN/m; in data set [1] (313.15 K) it was 31.4 ± 0.5 mN/m; in data set [1] (323.15 K), 30.3 ± 0.5 mN/m. For the same compound, the refractive index in data set [2] (283.15 K) was 1.451 ± 0.0004; in data set [2] (293.15 K), 1.4458 ± 0.0004; in data set [2] (303.15 K), 1.4409 ± 0.0004; in data set [2] (313.15 K), 1.4362 ± 0.0004; in data set [2] (323.15 K), 1.4314 ± 0.0004.

For `NCc1ccccc1` [benzylamine], the surface tension liquid-gas in data set [1] (283.15 K) is listed as 37.9 ± 0.6 mN/m; in data set [1] (293.15 K) it was 37.1 ± 0.5 mN/m; in data set [1] (303.15 K), 36.3 ± 0.5 mN/m; in data set [1] (313.15 K), 35.6 ± 0.5 mN/m; in data set [1] (323.15 K), 35 ± 1 mN/m. Also, the refractive index in data set [2] (283.15 K) stood at 1.5516 ± 0.0004; in data set [2] (293.15 K) it was 1.5445 ± 0.0004; in data set [2] (303.15 K), 1.5393 ± 0.0004; in data set [2] (313.15 K), 1.5328 ± 0.0004; in data set [2] (323.15 K), 1.5279 ± 0.0004.

With `O` [water] + CC(N)CN, the surface tension liquid-gas in data set [3] (283.15 K) is on record as 74.2 ± 0.9 mN/m; in data set [3] (293.15 K), 72.6 ± 0.9 mN/m; in data set [3] (303.15 K) it was 71.3 ± 0.9 mN/m; in data set [3] (313.15 K), 69.2 ± 0.9 mN/m; in data set [3] (323.15 K) it was 67.7 ± 0.9 mN/m. Moreover, the refractive index worked out at 1.3343 ± 0.0003 in data set [4] (283.15 K); 1.333 ± 0.0003 in data set [4] (293.15 K); 1.3319 ± 0.0003 in data set [4] (303.15 K); 1.3306 ± 0.0003 in data set [4] (313.15 K); 1.329 ± 0.0003 in data set [4] (323.15 K).

As for `O` [water] + NCc1ccccc1, the surface tension liquid-gas in data set [3] (283.15 K) is reported as 74.2 ± 0.9 mN/m; in data set [3] (293.15 K), 72.6 ± 0.9 mN/m; in data set [3] (303.15 K), 71.1 ± 0.9 mN/m; in data set [3] (313.15 K) it was 69.2 ± 0.9 mN/m; in data set [3] (323.15 K), 67.7 ± 0.9 mN/m. In addition, the refractive index in data set [4] (283.15 K) came out at 1.3343 ± 0.0003; in data set [4] (293.15 K), 1.333 ± 0.0003; in data set [4] (303.15 K), 1.3319 ± 0.0003; in data set [4] (313.15 K) it was 1.3306 ± 0.0003; in data set [4] (323.15 K), 1.329 ± 0.0003.
